Measurements taken from patent US20070049593A1 (priority 2004, published 2007).
Counter-ions that a name gives are not always drawn.

The compounds below were run against T1, HCV polymerase (Hepatitis C virus genotype 1b, UniProt P26663) (assay: biochemical). Conditions: not given.
T1 construct: a region encoding NS5B (J Virol 1991 March, 65(3), 1105-13, 544 amino acids after deletion of 47 amino acids on the C-terminal); 6xHis (C); made in house; host or cells: Escherichia coli
Parameters: species or system HCV BK strain
Outline: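 His-tagged NS5B (BK strain, 47-aa C-terminal deletion, E. coli-expressed) at 0.5 μg/ml copied 5 μg/ml run-off RNA bearing the HCV 3′ UTR with 2 μM UTP plus [3H]UTP, 50 μM ATP/GTP, in pH 7.5 Tris with 5 mM MgCl2, 25 °C, 90 min. TCA-precipitated RNA was counted and IC50 calculated.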

T1 sequence (P26663 2420-2963): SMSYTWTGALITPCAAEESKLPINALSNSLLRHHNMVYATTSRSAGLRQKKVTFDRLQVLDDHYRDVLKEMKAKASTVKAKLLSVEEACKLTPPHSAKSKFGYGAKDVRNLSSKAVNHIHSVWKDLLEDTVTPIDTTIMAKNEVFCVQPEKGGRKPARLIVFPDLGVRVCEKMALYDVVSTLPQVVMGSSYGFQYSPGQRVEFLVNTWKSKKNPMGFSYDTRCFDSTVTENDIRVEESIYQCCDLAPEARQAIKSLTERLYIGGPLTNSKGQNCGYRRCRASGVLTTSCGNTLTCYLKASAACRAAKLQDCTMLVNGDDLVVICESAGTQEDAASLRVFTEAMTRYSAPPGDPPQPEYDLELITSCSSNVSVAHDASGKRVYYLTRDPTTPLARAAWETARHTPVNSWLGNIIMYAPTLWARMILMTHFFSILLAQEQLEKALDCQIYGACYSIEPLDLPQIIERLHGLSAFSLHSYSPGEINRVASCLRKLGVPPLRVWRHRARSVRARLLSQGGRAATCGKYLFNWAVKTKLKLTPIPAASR

SMILES	IC50
CC(C)(Cc1ccc(O)cc1)NC(=O)c1ccc2c(C3CCCCC3)c3n(c2c1)CCOc1ccccc1-3 [Example 2-220, N-[2-(4-hydroxyphenyl)-1,1-dimethylethyl]-12-cyclohexyl-6,7-dihydro-5-oxa-7a-azadibenzo[a,e]azulene-9-carboxamide]	0.1 to 1 µM
O=C(O)c1ccc2c(C3CCCCC3)c3n(c2c1)CCOc1c-3cccc1N(CCc1ccccc1)CCN1CCCCC1 [Example 2-221, 12-cyclohexyl-4-{N-phenethyl-N-[2-(piperidin-1-yl)ethyl]amino}-6,7-dihydro-5-oxa-7a-azadibenzo[a,e]azulene-9-carboxylic acid]	< 0.1 µM
CC(=O)N1CCC(NC(=O)c2ccc3c(C4CCCCC4)c4n(c3c2)CCOc2ccccc2-4)(C(=O)Nc2ccc(/C=C/C(=O)O)cc2)CC1 [Example 2-222, (E)-3-[4-({1-acetyl-4-[(12-cyclohexyl-6,7-dihydro-5-oxa-7a-azadibenzo[a,e]azulene-9-carbonyl)amino]piperidine-4-carbonyl}amino)phenyl]acrylic acid]	< 0.1 µM
CN1CCC(NC(=O)c2ccc3c(C4CCCCC4)c4n(c3c2)CCOc2ccccc2-4)(C(=O)Nc2ccc(/C=C/C(=O)O)cc2)CC1 [Example 2-223, (E)-3-[4-({4-[(12-cyclohexyl-6,7-dihydro-5-oxa-7a-azadibenzo[a,e]azulene-9-carbonyl)amino]-1-methylpiperidine-4-carbonyl]amino)phenyl]acrylic acid]	< 0.1 µM
CC(C)(COc1ccc(N)cc1)NC(=O)c1ccc2c(C3CCCCC3)c3n(c2c1)CCOc1ccccc1-3 [Example 2-224, N-[2-(4-aminophenoxy)-1,1-dimethylethyl]-12-cyclohexyl-6,7-dihydro-5-oxa-7a-azadibenzo[a,e]azulene-9-carboxamide]	< 0.1 µM
CC(C)(NC(=O)c1ccc2c(C3CCCCC3)c3n(c2c1)CCOc1ccccc1-3)c1nc2ccc(C(N)=O)cc2[nH]1 [Example 2-225, N-[1-(6-carbamoyl-1H-benzimidazol-2-yl)-1-methylethyl]-12-cyclohexyl-6,7-dihydro-5-oxa-7a-azadibenzo[a,e]azulene-9-carboxamide]	< 0.1 µM
CC(C)(COc1ccc(N2CCCC2=O)cc1)NC(=O)c1ccc2c(C3CCCCC3)c3n(c2c1)CCOc1ccccc1-3 [Example 2-226, N-{1,1-dimethyl-2-[4-(2-oxopyrrolidin-1-yl)phenoxy]ethyl}-12-cyclohexyl-6,7-dihydro-5-oxa-7a-azadibenzo[a,e]azulene-9-carboxamide]	< 0.1 µM
Cc1nc(C(C)(C)NC(=O)c2ccc3c(C4CCCCC4)c4n(c3c2)CCOc2ccccc2-4)[nH]c1C(=O)O [Example 2-227, 2-{1-[(12-cyclohexyl-6,7-dihydro-5-oxa-7a-azadibenzo[a,e]azulene-9-carbonyl)amino]-1-methylethyl}-5-methyl-3H-imidazole-4-carboxylic acid]	< 0.1 µM
CC(C)(NC(=O)c1ccc2c(C3CCCCC3)c3n(c2c1)CCOc1ccccc1-3)c1ccc(OCc2ccccc2)cc1 [Example 2-228, N-[1-(4-benzyloxyphenyl)-1-methylethyl]-12-cyclohexyl-6,7-dihydro-5-oxa-7a-azadibenzo[a,e]azulene-9-carboxamide]	< 0.1 µM
O=C(O)CN1CCC(NC(=O)c2ccc3c(C4CCCCC4)c4n(c3c2)CCOc2ccccc2-4)(C(=O)O)CC1 [Example 2-229, 1-carboxymethyl-4-[(12-cyclohexyl-6,7-dihydro-5-oxa-7a-azadibenzo[a,e]azulene-9-carbonyl)amino]piperidine-4-carboxylic acid monohydrochloride]	< 0.1 µM
CC(C)(NC(=O)c1ccc2c(C3CCCCC3)c3n(c2c1)CCOc1ccccc1-3)c1ccc(O)cc1 [Example 2-230, N-[1-(4-hydroxyphenyl)-1-methylethyl]-12-cyclohexyl-6,7-dihydro-5-oxa-7a-azadibenzo[a,e]azulene-9-carboxamide]	< 0.1 µM
CCN(CCN1CCCCCC1)c1cccc2c1OCCn1c-2c(C2CCCCC2)c2ccc(C(=O)O)cc21 [Example 2-231, 4-{N-[2-(azepan-1-yl)ethyl]-N-ethylamino}-12-cyclohexyl-6,7-dihydro-5-oxa-7a-azadibenzo[a,e]azulene-9-carboxylic acid dihydrochloride]	< 0.1 µM
CCN(CCC1CCN(C(C)=O)CC1)c1cccc2c1OCCn1c-2c(C2CCCCC2)c2ccc(C(=O)O)cc21 [Example 2-232, 4-{N-[2-(1-acetylpiperidin-4-yl)ethyl]-N-ethylamino)-12-cyclohexyl-6,7-dihydro-5-oxa-7a-azadibenzo[a,e]azulene-9-carboxylic acid]	< 0.1 µM
CC(=O)N1CCC(CCN(C(C)=O)c2cccc3c2OCCn2c-3c(C3CCCCC3)c3ccc(C(=O)O)cc32)CC1 [Example 2-233, 4-(N-acetyl-N-[2-(1-acetylpiperidin-4-yl)ethyl]amino}-12-cyclohexyl-6,7-dihydro-5-oxa-7a-azadibenzo[a,e]azulene-9-carboxylic acid]	< 0.1 µM
CC(C)(CN1CCC(O)CC1)NC(=O)c1ccc2c(C3CCCCC3)c3n(c2c1)CCOc1ccccc1-3 [Example 2-234, N-[2-(4-hydroxypiperidin-1-yl)-1,1-dimethylethyl]-12-cyclohexyl-6,7-dihydro-5-oxa-7a-azadibenzo[a,e]azulene-9-carboxamide]	0.1 to 1 µM
COC(=O)c1nc(C(C)(C)NC(=O)c2ccc3c(C4CCCCC4)c4n(c3c2)CCOc2ccccc2-4)oc1C [Example 2-235, methyl 2-{1-[(12-cyclohexyl-6,7-dihydro-5-oxa-7a-azadibenzo[a,e]azulene-9-carbonyl)amino]-1-methylethyl}-5-methyloxazole-4-carboxylate]	< 0.1 µM
Cc1oc(C(C)(C)NC(=O)c2ccc3c(C4CCCCC4)c4n(c3c2)CCOc2ccccc2-4)nc1C(=O)O [Example 2-236, 2-{1-[(12-cyclohexyl-6,7-dihydro-5-oxa-7a-azadibenzo[a,e]azulene-9-carbonyl)amino]-1-methylethyl}-5-methyloxazole-4-carboxylic acid]	< 0.1 µM
COc1ccc(C[C@H](NC(=O)c2ccc3c(C4CCCCC4)c4n(c3c2)CCOc2ccccc2-4)C(=O)O)cc1 [Example 2-237, (S)-2-[(12-cyclohexyl-6,7-dihydro-5-oxa-7a-azadibenzo[a,e]azulene-9-carbonyl)amino]-3-(4-methoxyphenyl)propionic acid]	< 0.1 µM
COC(=O)[C@@H](Cc1ccc(O)cc1)NC(=O)c1ccc2c(C3CCCCC3)c3n(c2c1)CCOc1ccccc1-3 [Example 2-238, methyl (R)-2-[(12-cyclohexyl-6,7-dihydro-5-oxa-7a-azadibenzo[a,e]azulene-9-carbonyl)amino]-3-(4-hydroxyphenyl)propionate]	< 0.1 µM
CC(C)(CN[C@H]1CC[C@H](O)CC1)NC(=O)c1ccc2c(C3CCCCC3)c3n(c2c1)CCOc1ccccc1-3 [Example 2-239, N-[2-(trans-4-hydroxycyclohexylamino)-1,1-dimethylethyl]-12-cyclohexyl-6,7-dihydro-5-oxa-7a-azadibenzo[a,e]azulene-9-carboxamide]	0.1 to 1 µM
CC(C)(NC(=O)c1ccc2c(C3CCCCC3)c3n(c2c1)CCOc1ccccc1-3)C(=O)N1CCCC(O)C1 (stereo not shown) [Example 2-240, N-[2-(3-hydroxypiperidin-1-yl)-1,1-dimethyl-2-oxoethyl]-12-cyclohexyl-6,7-dihydro-5-oxa-7a-azadibenzo[a,e]azulene-9-carboxamide]	< 0.1 µM
CC(C)(NC(=O)c1ccc2c(C3CCCCC3)c3n(c2c1)CCOc1ccccc1-3)c1ccc(OCC(=O)O)cc1 [Example 2-241, (4-{1-[(12-cyclohexyl-6,7-dihydro-5-oxa-7a-azadibenzo[a,e]azulene-9-carbonyl)amino]-1-methylethyl}phenoxy)acetic acid]	< 0.1 µM
CC(C)(NC(=O)c1ccc2c(C3CCCCC3)c3n(c2c1)CCOc1ccccc1-3)C(=O)N1CCC(CO)CC1 [Example 2-242, N-[2-(4-hydroxymethylpiperidin-1-yl)-1,1-dimethyl-2-oxoethyl]-12-cyclohexyl-6,7-dihydro-5-oxa-7a-azadibenzo[a,e]azulene-9-carboxamide]	< 0.1 µM
CCN1CCC(CCN(CC)c2cccc3c2OCCn2c-3c(C3CCCCC3)c3ccc(C(=O)O)cc32)CC1 [Example 2-243, 12-cyclohexyl-4-{N-ethyl-N-[2-(1-ethylpiperidin-4-yl)ethyl]amino}-6,7-dihydro-5-oxa-7a-azadibenzo[a,e]azulene-9-carboxylic acid dihydrochloride]	< 0.1 µM
CC(C)(CN1CCN(CCO)CC1)NC(=O)c1ccc2c(C3CCCCC3)c3n(c2c1)CCOc1ccccc1-3 [Example 2-244, N-{2-[4-(2-hydroxyethyl)piperazin-1-yl]-1,1-dimethylethyl}-12-cyclohexyl-6,7-dihydro-5-oxa-7a-azadibenzo[a,e]azulene-9-carboxamide]	0.1 to 1 µM
O=C(N[C@H](Cc1ccc(O)cc1)C(=O)O)c1ccc2c(C3CCCCC3)c3n(c2c1)CCOc1ccccc1-3 [Example 2-246, (R)-2-[(12-cyclohexyl-6,7-dihydro-5-oxa-7a-azadibenzo[a,e]azulene-9-carbonyl)amino]-3-(4-hydroxyphenyl)propionic acid]	< 0.1 µM
O=C(O)CN1CCC(NC(=O)c2ccc3c(C4CCCCC4)c4n(c3c2)CCOc2ccccc2-4)(c2nc3ccccc3[nH]2)CC1 [Example 2-247, {4-(1H-benzimidazol-2-yl)-4-[(12-cyclohexyl-6,7-dihydro-5-oxa-7a-azadibenzo[a,e]azulene-9-carbonyl)amino]piperidin-1-yl}acetic acid]	< 0.1 µM

Same assay, conditions: 25° C., 90 min; [5,6-3H]UTP incorporation into RNA; read-out: HCV polymerase inhibitory activity IC50

SMILES	IC50
CNC(=O)[C@H](Cc1ccc(O)cc1)NC(=O)c1ccc2c(C3CCCCC3)c3n(c2c1)CCOc1ccccc1-3 [Example 2-245, [(S)-2-(4-hydroxyphenyl)-1-(methylcarbamoyl)ethyl]-12-cyclohexyl-6,7-dihydro-5-oxa-7a-azadibenzo[a,e]azulene-9-carboxamide]	< 0.1 µM
